Our source for the IC50 values is US20110311483A1, “CRTH2 MODULATORS” (IRONWOOD PHARMACEUTICALS, INC., priority 2010, published 2011).

In assay [1] the target is T1, CRTH2 (Homo sapiens, UniProt Q9Y5Y4).
T1 construct: polymorphonuclear cells (0.5 ml; 10^6/ml cells) in PBS containing 0.9 mM CaCl2 and 0.5 mM MgCl2) were preincubated with various concentrations of test compounds; endogenous in cells; host or cells: polymorphonuclear cells (eosinophils gated by side scatter and VLA-4)
T1 sequence (Q9Y5Y4 1-395): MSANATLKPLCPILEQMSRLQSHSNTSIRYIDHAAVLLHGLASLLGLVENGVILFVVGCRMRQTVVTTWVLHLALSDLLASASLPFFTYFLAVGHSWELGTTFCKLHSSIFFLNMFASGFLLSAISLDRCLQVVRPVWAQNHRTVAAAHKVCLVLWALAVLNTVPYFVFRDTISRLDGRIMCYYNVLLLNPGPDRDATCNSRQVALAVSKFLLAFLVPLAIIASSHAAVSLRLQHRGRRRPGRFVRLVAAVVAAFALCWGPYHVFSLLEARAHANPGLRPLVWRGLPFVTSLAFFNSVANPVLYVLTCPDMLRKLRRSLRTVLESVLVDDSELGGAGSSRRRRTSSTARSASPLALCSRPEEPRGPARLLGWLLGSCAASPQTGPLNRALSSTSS
In words: Human Whole Blood CD11b Antagonist Assay (CD11b expression in eosinophils challenged with 15R-Methyl-PGD2). It is filed as cell-based. As to conditions: agonist 15R-Methyl-PGD2 10 nM, flow cytometry. As to the method: Human Whole Blood CD11b Antagonist Assay (modified from Nicholson, et al. Pulmonary Pharmacology and Therapeutics: 20 (2007); 52-59). The potential CRTH2 antagonist activity of certain compounds was tested in human whole blood using an assay that tests the ability of the compounds to block the CD11b expression in eosinophils by 15-R-methyl-PGD2. A CRTH2 antagonist should block CD11b expression by subsequently added 15-Methyl-PGD2. Human whole blood (200 μL) was incubated at 37° C. for 10 minutes in the presence of various concentrations of test compounds before being challenged with the agonist 15R-Methyl-PGD2 (10 nM). Reactions were terminated by the addition of ice-cold PBS+0.5% BSA+2 m MEDTA (1 mL) and centrifugation (300×g for 5 minutes at 4° C.) Cells were then incubated at 4° C. for 10 min in the presence of human IgG. Cells were then incubated for 30-45 min with a mixture of PE-Cy5-labeled mouse anti-human CD16 (10 μl; BD Biosciences) and FITC-labeled mouse anti-human CD11b (10 μL; Beckman Coulter.) After rinsing (1 mL ice-cold PBS+0.5% BSA+2 mMEDTA), red blood cells were lysed by the addition of 1 mL ice-cold H2O to the cell pellet for 30 sec-1 min immediately followed by the addition of 3.5% NaCl (300 μL.) Cells were then rinsed (2×−1 ml ice cold PBS+0.5% BSA+2 m MEDTA) and fixed in PBS containing 1% formaldehyde. The distribution of fluorescence intensities was measured by flow cytometry. Eosinophils were gated out on the basis of their granularity (high side scatter) and absence of CD-16. CD11b was then measured on this eosinophil population on the basis of fluorescence due to FITC. DPBS CD11b Antagonist Assay. The potential CRTH2 antagonist activity of certain compounds was tested using a CD11b expression assay using essentially the method described by Monneret et al. (J Pharmacol Exp Ther 304:349-55, 2003). Briefly, polymorphonuclear cells (0.5 ml; 10^6/ml cells) in PBS containing 0.9 mM CaCl2 and 0.5 mM MgCl2) were preincubated with various concentrations of test compounds at room temperature for 10 minutes before they were challenged with the agonist 15R-Methyl-PGD2 (10 nM). The incubations were terminated by the addition of ice-cold FACSFlow (BD Biosciences; Cat# 342003) and centrifugation (400 g for 5 minutes at 4° C.). The cells were then incubated for 30 minutes at 4° C. with a mixture of PE-labeled mouse anti-human VLA-4 (5 μl; BD Biosciences) and FITC-labeled mouse anti-human CD11b (10 μl; Beckman Coulter). […] The distribution of fluorescence intensities among 60,000 cells was measured by flow cytometry. Eosinophils were gated out on the basis of their granularity (high side scatter) and labeling with VLA-4 (PE fluorescence). CD11b was then measured in the eosinophil region on the basis of fluorescence due to FITC. […]
In general terms: Flow cytometry measures light scatter and fluorescence of single cells or particles in a stream.

Assay [2] concerns the target T1, CRTH2. In words: DPBS CD11b Antagonist Assay (CD11b expression in eosinophils, polymorphonuclear cells challenged with 15R-Methyl-PGD2). It is filed as cell-based. The note with it: polymorphonuclear cells in PBS with CaCl2 and MgCl2; agonist 15R-Methyl-PGD2 10 nM; flow cytometry. As for the experimental part: Human Whole Blood CD11b Antagonist Assay (modified from Nicholson, et al. Pulmonary Pharmacology and Therapeutics: 20 (2007); 52-59). The potential CRTH2 antagonist activity of certain compounds was tested in human whole blood using an assay that tests the ability of the compounds to block the CD11b expression in eosinophils by 15-R-methyl-PGD2. A CRTH2 antagonist should block CD11b expression by subsequently added 15-Methyl-PGD2. Human whole blood (200 μL) was incubated at 37° C. for 10 minutes in the presence of various concentrations of test compounds before being challenged with the agonist 15R-Methyl-PGD2 (10 nM). Reactions were terminated by the addition of ice-cold PBS+0.5% BSA+2 m MEDTA (1 mL) and centrifugation (300×g for 5 minutes at 4° C.) Cells were then incubated at 4° C. for 10 min in the presence of human IgG. Cells were then incubated for 30-45 min with a mixture of PE-Cy5-labeled mouse anti-human CD16 (10 μl; BD Biosciences) and FITC-labeled mouse anti-human CD11b (10 μL; Beckman Coulter.) After rinsing (1 mL ice-cold PBS+0.5% BSA+2 mMEDTA), red blood cells were lysed by the addition of 1 mL ice-cold H2O to the cell pellet for 30 sec-1 min immediately followed by the addition of 3.5% NaCl (300 μL.) Cells were then rinsed (2×−1 ml ice cold PBS+0.5% BSA+2 m MEDTA) and fixed in PBS containing 1% formaldehyde. The distribution of fluorescence intensities was measured by flow cytometry. Eosinophils were gated out on the basis of their granularity (high side scatter) and absence of CD-16. CD11b was then measured on this eosinophil population on the basis of fluorescence due to FITC. DPBS CD11b Antagonist Assay. The potential CRTH2 antagonist activity of certain compounds was tested using a CD11b expression assay using essentially the method described by Monneret et al. (J Pharmacol Exp Ther 304:349-55, 2003). Briefly, polymorphonuclear cells (0.5 ml; 10^6/ml cells) in PBS containing 0.9 mM CaCl2 and 0.5 mM MgCl2) were preincubated with various concentrations of test compounds at room temperature for 10 minutes before they were challenged with the agonist 15R-Methyl-PGD2 (10 nM). The incubations were terminated by the addition of ice-cold FACSFlow (BD Biosciences; Cat# 342003) and centrifugation (400 g for 5 minutes at 4° C.). The cells were then incubated for 30 minutes at 4° C. with a mixture of PE-labeled mouse anti-human VLA-4 (5 μl; BD Biosciences) and FITC-labeled mouse anti-human CD11b (10 μl; Beckman Coulter). The cells were then incubated with Optilyse C (0.25 ml; Beckman Coulter) for 15 minutes, centrifuged, and then fixed in PBS (0.4 ml; calcium and magnesium free) containing 1% formaldehyde. The distribution of fluorescence intensities among 60,000 cells was measured by flow cytometry. Eosinophils were gated out on the basis of their granularity (high side scatter) and labeling with VLA-4 (PE fluorescence). CD11b was then measured in the eosinophil region on the basis of fluorescence due to FITC. All data were corrected for the value obtained for the corresponding isotope control antibody.

Where only a bound is given, the exact number is not on record here.

Consider `Cc1c(C(=O)c2ccccc2S(=O)(=O)N2CCOCC2)c2c(n1CC(=O)O)CCC(C)(C)C2` [Compound I-1, 2-(2,5,5-Trimethyl-3-(2-(morpholinosulfonyl)benzoyl)-4,5,6,7-tetrahydro-1H-indol-1-yl)acetic acid], for which the IC50 at CRTH2 [1] and at CRTH2 [2] was 0.1 to 0.6 µM each time.

For `CCOC(=O)Cn1c(C)c(Cc2ccccc2S(=O)(=O)N(C)CC)c2c1CC(C)(C)CC2=O` [Compound I-2, Ethyl 2-(3-(2-(N-ethyl-N-methylsulfamoyl)benzyl)-2,6,6-trimethyl-4-oxo-4,5,6,7-tetrahydro-1H-indol-1-yl)acetate], the IC50 on CRTH2 [1] was above 0.6 µM; at CRTH2 [2], 0.1 to 0.6 µM.

Consider `CCN(C)S(=O)(=O)c1ccccc1Cc1c2c(n(CC(=O)O)c1C)CC(C)(C)CC2=O` [Compound I-3, 2-(3-(2-(N-ethyl-N-methylsulfamoyl)benzyl)-2,6,6-trimethyl-4-oxo-4,5,6,7-tetrahydro-1H-indol-1-yl)acetic acid], for which the IC50 at CRTH2 [1] is 0.01 to 0.1 µM; on CRTH2 [2] it was below 0.01 µM.

Consider `Cc1c(Cc2ccccc2S(=O)(=O)N2CCCCC2)c2c(n1CC(=O)O)CC(C)(C)CC2=O` [Compound I-4, 2-(2,6,6-Trimethyl-4-oxo-3-(2-(piperidin-1-ylsulfonyl)benzyl)-4,5,6,7-tetrahydro-1H-indol-1-yl)acetic acid], for which the IC50 at CRTH2 [1] and on CRTH2 [2] was below 0.01 µM in each case.

With `CCOC(=O)C(C)n1c(C)c(Cc2ccccc2S(=O)(=O)N2CCCC2)c2c1CC(C)(C)CC2=O` (stereo not drawn) [Compound I-5, Ethyl 2-(2,6,6-trimethyl-4-oxo-3-(2-(pyrrolidin-1-ylsulfonyl)benzyl)-4,5,6,7-tetrahydro-1H-indol-1-yl)propanoate], at CRTH2 [2], the IC50 was above 0.6 µM.

A word on the IC50: it is the concentration that gives 50% inhibition.
